Data set [1] concerns MGC-803 cells. The data set is described as follows: MTT cell viability, MGC-803. In kind it is cell-based. The following applies: Homo sapiens, gastric cancer cell line, 72 h. The procedure:
(§1) The cell viability was determined by 3-(4,5-dimethylthiazol-2-yl)-2,5-diphenyltetrazolium bromide (MTT) assay, according to the manufacturer’s instructions. 1 day before treatment, cells were seeded into 96-well plates at a concentration of 2–5 × 10^3 cells per well, followed by treatment with fresh medium containing serial dilutions of candidate compounds for 48 or 72 h, 20 μL of MTT solution (5 mg/mL in PBS) was then added to each well. After treatment, the plates were incubated at 37 °C for another 4 h. Subsequently, the MTT solution was removed and 150 μL of DMSO was added to each well for 10 min, and then the plates were shaken to dissolve the dark blue crystal (formazan), the absorbance was detected at 570 nm using a BioTek microplate reader. The data were analyzed using SPSS 20 software.

Data set [2] has as its system H1975 cells. The experiment in a line: MTT cell viability, H1975. In kind it is cell-based. To be noted: Homo sapiens, NCI-H1975, 72 h. The procedure: as §1
The subject of data set [3] is EC109 cells. The data set is described as follows: MTT cell viability, EC109. In kind it is cell-based. To be noted: Homo sapiens, ECa-109, esophageal cancer cell line, 72 h. The procedure: as §1
The target of data set [4] is T1, MTH2 (Homo sapiens, UniProt Q9NV35).
T1 construct: endogenous in cells; host or cells: MGC-803 (human gastric cancer cell line)
The experiment in a line: Cellular thermal shift assay (CETSA), MTH2. In kind it is binding. The following applies: MGC-803 cells, 50 µM compound, heated 10 min from 43 to 61 °C. The method, then: Cellular thermal shift assay (CETSA), also known as the target engagement assay was one-way to detect the intracellular interaction ability of compounds with its specific target. Firstly, cells were seeded into T75 culture flasks and cultured overnight. Then, the cells were treated with cell media containing 1‰ DMSO as blank control and candidate compounds for 3–5 h. Next, the cells were collected by centrifugation and resuspended by PBS, then the cells were aliquoted into 7 PCR tubes and heated using PCR instrument for 10 min from 43 to 61 °C. After that, cells were lysed using liquid nitrogen and three repeated cycles of freeze-thawing. Then, samples were centrifuged at 12,000 × g for 20 min at 4 °C. Supernatants were denatured at 100 °C for 10 min and kept at −20 °C until Western Blot analysis.

Data set [5] relates to HGC-27 cells. The experiment in a line: MTT cell viability, HGC-27. In kind it is cell-based. To be noted: Homo sapiens, gastric cancer cell line, 72 h. The procedure:
as §1

Data set [6] deals with MGC-803 cells. The experiment in a line: Colony formation assay, MGC-803. In kind it is cell-based, human. To be noted: MGC-803, 7 days treatment, compared with DMSO or MI-929. The procedure: The day before treatment, cells were seeded into six-well plates at a concentration of 1 × 10^3 cells per well, and then the media were replaced with fresh media containing serial concentrations of candidate compounds. After 7 days of treatment, the cells were fixed with 75% ethanol, stained with 0.1% crystal violet solution and captured by the microscopy (Leica). After that, the crystal violet crystals were dissolved by adding methanol. The absorbance at 595 nm was measured by a BioTek micro plate reader. In the end, the data were analyzed using the GraphPad Prism 5 software.

Data set [7] concerns GES-1 cells. The experiment in a line: MTT cell viability, GES-1. In kind it is cell-based. The following applies: Homo sapiens, GES1, normal gastric epithelial cell line, 72 h. The method, then:
as §1

A short description of data set [8]: Body weight and organ H&E staining in xenograft mice. In kind it is in vivo, BALB/c nude mice. The following applies: 40 mg/kg, gavage once a day for 25 days, vs oil group. The procedure:
All animal experiments were conducted according to the guidelines of the Institutional Animal Care and Use Committee of Zhengzhou University. Four or five-week-old female BALB/c nude mice, weighing 18–21 g were purchased from Hunan Slack Scene of Laboratory Animal Company, LTD (Hunan, China). They received abundant food and water and were housed in a laminar flow under sterilized condition. 200 µL MGC-803 cells at the concentration of 5 × 10^7/mL were injected into the right scapular region of the mice. When most of the tumor volumes reached 100 mm^3, mice were randomly divided into oil (solvent) group and MI-743(40 mg/kg) treatment group. Then, they received gavage daily for 25 days. The body weight was weighed every 2 days and the tumor volumes were measured every 4 days. At the 25th day, the tumors were surgically removed and weighed. The tumor size was determined by vernier caliper measurements and the tumor and major organs were fixed in 4% buffered paraformaldehyde and paraffin-embedded for hematoxylin and eosin (HE) staining, immunohistochemistry (IHC) and TUNEL assay.

Data set [9] concerns EC9706 cells. The experiment in a line: MTT cell viability, EC9706. In kind it is cell-based. To be noted: Homo sapiens, esophageal cancer cell line, 72 h. The method, then:
as §1

Data set [10] deals with pc9 cells. The experiment in a line: MTT cell viability, pc9. In kind it is cell-based. To be noted: Homo sapiens, PC-9, 72 h. The method, then: as §1
For data set [11], the system named is SMMC-7721 cells. The data set is described as follows: MTT cell viability, SMMC-7721. In kind it is cell-based. The following applies: Homo sapiens, liver cancer cell line, 72 h. The procedure: as §1
Data set [12] has as its system MGC-803 cells. The experiment in a line: 8-oxo-dG assay (Cy3-conjugated avidin), MGC-803. In kind it is cell-based, human. To be noted: MGC-803, 5 µM, 48 h, compared with DMSO. The procedure:
Intracellular 8-oxo-dG levels were measured by staining with Cy3-conjugated avidin[65]. Cells were seeded on coverslips in 24-well plates (1–1.5 × 10^4 cells/well) overnight, and then transfected with candidate compounds. After 48 h, the cells were fixed with ice-cold methanol in Tris-buffered saline (TBS) for 15 min and blocked, using TBS with 0.1% Triton X-100 and 15% fetal bovine serum for 1 h. Then, the cells were stained with Cy3-conjugated avidin (0.5 µg/mL) for 1 h at room temperature. DNA was counterstained with 4,6-diamidino-2-phenylindole(DAPI). Images were acquired in a Nikon Eclipse TE 2000-S fluorescence microscope.

The test system of data set [13] is KYSE-450 cells. The experiment in a line: MTT cell viability, KYSE-450. In kind it is cell-based. To be noted: Homo sapiens, esophageal cancer cell line, 72 h. The method, then:
as §1

Data set [14] concerns B16-F10 cells. The experiment in a line: MTT cell viability, B16-F10. In kind it is cell-based. The following applies: Mus musculus, 72 h. The procedure:
as §1

T1 sequence (Q9NV35 whole entry): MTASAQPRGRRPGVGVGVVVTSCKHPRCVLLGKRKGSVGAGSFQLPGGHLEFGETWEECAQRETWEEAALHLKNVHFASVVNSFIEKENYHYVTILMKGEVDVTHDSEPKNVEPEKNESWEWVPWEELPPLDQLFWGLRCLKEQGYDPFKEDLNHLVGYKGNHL

Take `C#CCSc1nc(NNC(N)=S)c(C#N)c(-c2ccc3oc(=O)ccc3c2)n1` [MI-743, 2-(5-cyano-6-(2-oxo-2H-chromen-6-yl)-2-(prop-2-yn-1-ylthio)pyrimidin-4-yl)hydrazine-1-carbothioamide]: the IC50 came to 2.91 ± 0.46 µM in data set [1]; 15.1 ± 1.18 µM in [2]; 6.99 ± 0.84 µM in data set [3]; 1.14 ± 0.16 µM in data set [5]; 25.5 ± 1.02 µM in data set [7]; 8.35 ± 0.92 µM in [9]. The IC50 in data set [10] was found to be 9.53 ± 0.98 µM; in [11] it was 5.39 ± 0.73 µM; in data set [13], 6.69 ± 0.82 µM; in [14], 8.08 ± 0.91 µM. Besides, the “temperature at which MTH2 became unstable” value in data set [4] was determined as 49 °C. The colony formation entry in [6] was “smaller and fewer colonies”. Besides, the “H&E staining of the liver, kidney, lung, heart and spleen” value in data set [8] is on record as “no signs of toxicity”. Also, the mouse body weight entry in data set [8] is “did not present obvious change”. In [12], the “levels of 8-oxo-dG” value is listed as “sharply increased”.

One may read the IC50 as the concentration that gives 50% inhibition.

For the origin of these results see article PMC6547740, “Potent and specific MTH1 inhibitors targeting gastric cancer” (Cell Death & Disease, 2019).
